This note sets out measurements from PubChem BioAssay AID1259408 (Genetic Toxicology Data Bank (GENE-TOX), 2018).

SMILES strings stand for the structures. Active and inactive are the calls of the source. The rule behind the calls is not given here.

The data set concerns GENE-TOX genotoxicity assays, various organisms and cells. Nature of the data set: GENE-TOX mutagenicity studies. The note with it: for call: Assay Type: In vivo carcinogenicity studies.
Where [1] appears, read: Species/Cell Type: Bacillus subtilis (H17 vs M45), Assay Type: Rec-assay, spot test, DNA effects (bacterial DNA repair), Assay Code: REWT, Evaluation Type: Evaluation A (Pre-1980).
Where [2] appears, read: Species/Cell Type: Nonhuman, Assay Type: Sister-chromatid exchange (SCE) in vivo, Assay Code: SC3+, Evaluation Type: Evaluation B (Post-1980).
Setting [3] is: Species/Cell Type: Nonhuman, Assay Code: CCG+, Evaluation Type: Evaluation A (Pre-1980).
The mark [4] stands for this setting: Species/Cell Type: Saccharomyces cerevisiae, Assay Type: Mitotic recombination or gene conversion, Assay Code: YEH-, Evaluation Type: Evaluation A (Pre-1980).
[5] abbreviates: Species/Cell Type: Salmonella typhimurium (one or more of the five standard strains: TA98, TA100, TA1535, TA1537, and TA1538), Assay Type: Histidine reverse gene mutation, Ames assay, Assay Code: SALT, Evaluation Type: Evaluation A (Pre-1980).
The mark [6] stands for this setting: Species/Cell Type: Drosophila melanogaster, Assay Type: Sex-linked recessive lethal gene mutation, Assay Code: SRL+, Evaluation Type: Evaluation A (Pre-1980).
The mark [7] stands for this setting: Species/Cell Type: Escherichia coli polA (W3119 vs P3478), Assay Type: Rec-assay, DNA effects (bacterial DNA repair), Assay Code: RE1T, Evaluation Type: Evaluation A (Pre-1980).
The mark [8] stands for this setting: Species/Cell Type: Nonhuman, Assay Type: Sister-chromatid exchange (SCE) in vivo, Assay Code: SC3T, Evaluation Type: Evaluation B (Post-1980).
Setting [9] is: Species/Cell Type: Salmonella typhimurium (one or more of the five standard strains: TA98, TA100, TA1535, TA1537, and TA1538), Assay Type: Histidine reverse gene mutation, Ames assay, Assay Code: SAL+*, Activation: With metabolic activation, Evaluation Type: Evaluation A (Pre-1980).
[10] abbreviates: Species/Cell Type: Bacillus subtilis (H17 vs M45), Assay Type: Rec-assay, spot test, DNA effects (bacterial DNA repair), Assay Code: REW-, Evaluation Type: Evaluation A (Pre-1980).

With `[As]`, the mutagenic call (Species/Cell Type: Human lymphocytes, Assay Type: Sister-chromatid exchange (SCE) in vivo, Assay Code: SCY+, Evaluation Type: Evaluation B (Post-1980)) was “active; positive”.

Turning to `CCCCCCCC(=O)Oc1c(I)cc(C#N)cc1I`, under setting [1], the mutagenic call is reported as “no conclusion”.

Take `N#CO`: the mutagenic call (Species/Cell Type: Arabidopsis species, Assay Type: Gene mutation, Assay Code: ARM+, Evaluation Type: Evaluation A (Pre-1980)) was “active; positive”.

As to `Cn1c(N)nc2c3cccnc3ccc21`, the mutagenic call is, setting by setting: (Species/Cell Type: Chinese hamster ovary (CHO) cells, Assay Type: Forward gene mutation at the HPRT locus, Assay Code: CHOT, Evaluation Type: Evaluation B (Post-1980)) “no conclusion”; (Species/Cell Type: Mammalian polychromatic erythrocytes, Assay Type: Micronucleus test, chromosome aberrations, Assay Code: MNT-, Evaluation Type: Evaluation B (Post-1980)) “inactive; negative”; (Species/Cell Type: Nonhuman, Assay Type: Sister-chromatid exchange (SCE) in vitro, Assay Code: SC2+D*, Activation: With metabolic activation, Dose Response: With dose response, Evaluation Type: Evaluation B (Post-1980)) “active; positive”; under setting [2], “active; positive”.

Consider `Cc1ccccc1N`, for which the mutagenic call runs as follows: (Species/Cell Type: Escherichia coli polA (W3119 vs P3478), Assay Type: Rec-assay, DNA effects (bacterial DNA repair), Assay Code: RE1+, Evaluation Type: Evaluation A (Pre-1980)) “active; positive”; (Species/Cell Type: Fischer rat embryo (RLV/1706) cells, Assay Type: Cell transformation, viral enhanced, Assay Code: CTR+, Evaluation Type: Evaluation A (Pre-1980)) “active; positive”; (Species/Cell Type: Mammalian polychromatic erythrocytes, Assay Type: Micronucleus test, chromosome aberrations, Assay Code: MNTT, Evaluation Type: Evaluation A (Pre-1980)) “no conclusion”; (Species/Cell Type: Mouse, Sex: Male, Assay Type: Sperm morphology, Assay Code: SPI-, Evaluation Type: Evaluation A (Pre-1980)) “inactive; negative”; (Species/Cell Type: Nonhuman, Assay Type: Sister-chromatid exchange (SCE) in vitro, Assay Code: SC2+D, Dose Response: With dose response, Evaluation Type: Evaluation B (Post-1980)) “active; positive”; under setting [2], “active; positive”. Besides, the mutagenic call under setting [4] is “inactive; negative” and the mutagenic call under setting [5] was “no conclusion”. In addition, under setting [3], the call was “active; positive”.

Take `ClC1(Cl)C2(Cl)C3(Cl)C4(Cl)C(Cl)(Cl)C5(Cl)C3(Cl)C1(Cl)C5(Cl)C24Cl` (stereo unspecified): under setting [3], the call was “active; positive”. In addition, the mutagenic call (Species/Cell Type: Rodents, Sex: Male, Assay Type: Dominant lethal test, Assay Code: DLT-, Evaluation Type: Evaluation A (Pre-1980)) was “inactive; negative”.

Turning to `[Cl][Sb]([Cl])[Cl]`, for the setting “Species/Cell Type: Bacillus subtilis (H17 vs M45), Assay Type: Rec-assay, spot test, DNA effects (bacterial DNA repair), Assay Code: REW+, Evaluation Type: Evaluation A (Pre-1980)”, the mutagenic call was “active; positive”.

For `CN(C)N=Nc1cccnc1`, the mutagenic call is “active; positive” under setting [6]; “active; positive” (Species/Cell Type: Mammalian polychromatic erythrocytes, Assay Type: Micronucleus test, chromosome aberrations, Assay Code: MNT+, Evaluation Type: Evaluation A (Pre-1980)); “active; positive” (Species/Cell Type: Saccharomyces cerevisiae, Assay Type: Forward and reverse gene mutation, mitotic recombination and gene conversion, host-mediated assay, Assay Code: HME+, Evaluation Type: Evaluation A (Pre-1980)); “active; positive” (Species/Cell Type: Saccharomyces cerevisiae, Assay Type: Mitotic recombination or gene conversion, Assay Code: YEC+, Evaluation Type: Evaluation A (Pre-1980)).

Consider `O=C1CN(/N=C/C=C/c2ccc([N+](=O)[O-])o2)C(=O)N1`, for which the mutagenic call is “active; positive” (Species/Cell Type: Escherichia coli WP2, Assay Type: Tryptophan reverse gene mutation, Assay Code: WP2+, Evaluation Type: Evaluation A (Pre-1980)) and “inactive; negative” (Species/Cell Type: Escherichia coli WP2 UVRA, Assay Type: Tryptophan reverse gene mutation, Assay Code: WPU-, Evaluation Type: Evaluation A (Pre-1980)).

For the compound `Nc1ccccc1-c1ccccc1`, the mutagenic call was “inactive; negative” (Species/Cell Type: Escherichia coli polA (W3110 vs P3478), Assay Type: Rec-assay, DNA effects (bacterial DNA repair), Assay Code: RE2-, Evaluation Type: Evaluation A (Pre-1980)); “no conclusion” under setting [7]; “inactive; negative” (Species/Cell Type: Fischer rat embryo (RLV/1706) cells, Assay Type: Cell transformation, viral enhanced, Assay Code: CTR-, Evaluation Type: Evaluation A (Pre-1980)); “active; positive” (Species/Cell Type: Mouse embryo (AKR/ME) cells, Assay Type: Cell transformation, Assay Code: CTK+, Evaluation Type: Evaluation A (Pre-1980)); “no conclusion” under setting [8]; “inactive; negative” (Species/Cell Type: Rat primary hepatocytes, Assay Type: Unscheduled DNA synthesis (UDS) in vitro, DNA effects, Assay Code: UDP-, Evaluation Type: Evaluation A (Pre-1980)). Further, the mutagenic call under setting [4] was “inactive; negative”; the mutagenic call under setting [9] is “active; positive”; the mutagenic call (Species/Cell Type: Salmonella typhimurium, Assay Type: Forward and reverse gene mutation, body fluid assay, Assay Code: BFU-, Evaluation Type: Evaluation A (Pre-1980)) was “inactive; negative”; the mutagenic call (Species/Cell Type: Salmonella typhimurium, Assay Type: Forward and reverse gene mutation, host-mediated assay, Assay Code: HMA-, Evaluation Type: Evaluation A (Pre-1980)) was “inactive; negative”; the mutagenic call (Species/Cell Type: Syrian hamster embryo (SHE) cells, Assay Type: Cell transformation, clonal assay, Assay Code: CTC-, Evaluation Type: Evaluation A (Pre-1980)) is “inactive; negative”. In addition, the call (Species/Cell Type: Nonhuman, Assay Code: CCGT, Evaluation Type: Evaluation A (Pre-1980)) was “no conclusion”.

As to `C=C1[C@@H](C)[C@H]2[C@H](Cc3ccccc3)NC(=O)[C@]23OC(=O)/C=C/[C@H](O)CCC[C@@H](C)C/C=C/[C@H]3[C@@H]1O`, the mutagenic call under setting [10] was “inactive; negative”.

`O=c1ccc2ccc3occc3c2o1`: the mutagenic call (Species/Cell Type: Mammalian cell culture, nonhuman, Assay Type: Micronucleus test in vitro, chromosome aberrations, Assay Code: MN&+, Evaluation Type: Evaluation A (Pre-1980)) is “active; positive” and the mutagenic call (Species/Cell Type: Saccharomyces cerevisiae, Assay Type: Reverse gene mutation, Assay Code: YERT, Evaluation Type: Evaluation A (Pre-1980)) is given as “no conclusion”.

As for `Cc1ccc2ncccc2c1`, the mutagenic call under setting [9] was “active; positive”.

Regarding `CC(C)OC(=O)Nc1ccccc1`, the mutagenic call (Species/Cell Type: Vicia faba, Assay Type: Chromosome aberrations, Assay Code: VIC+D, Dose Response: With dose response, Evaluation Type: Evaluation A (Pre-1980)) was “active; positive”.

On to `c1cc2cc3c4c(ccc5cc6c(c1CCC6)c2c54)CCC3`, for which the mutagenic call under setting [9] is “active; positive”.

For `NC(=O)C#CC(N)=O`, the mutagenic call under setting [10] is “inactive; negative”.

Turning to `CCN(CC)c1ccc2cc3ccc(=[N+](CC)CC)cc-3oc2c1`, the mutagenic call under setting [6] is “active; positive”.

As for `CCOP(=O)(OCC)Oc1nc(Cl)c(Cl)cc1Cl`, the mutagenic call is “no conclusion” (Species/Cell Type: Nonhuman, Assay Type: Sister-chromatid exchange (SCE) in vitro, Assay Code: SC2T, Evaluation Type: Evaluation B (Post-1980)) and “inactive; negative” (Species/Cell Type: Nonhuman, Assay Type: Sister-chromatid exchange (SCE) in vivo, Assay Code: SC3-, Evaluation Type: Evaluation B (Post-1980)).

As to `Nc1ccc(Cc2ccc(N)cc2)cc1`, under setting [3], the call was “active; positive”. Besides, the mutagenic call under setting [2] is “active; positive”.

In the case of `CCCCN(CCO)N=O`, the mutagenic call (Species/Cell Type: Salmonella typhimurium (one or more of the five standard strains: TA98, TA100, TA1535, TA1537, and TA1538), Assay Type: Histidine reverse gene mutation, Ames assay, Assay Code: SAL+, Evaluation Type: Evaluation A (Pre-1980)) is “active; positive”.

Turning to `COP(=O)(NC(C)=O)SC` (stereo unspecified), the mutagenic call under setting [1] is listed as “no conclusion”; the mutagenic call (Species/Cell Type: Drosophila melanogaster, Assay Type: Sex-linked recessive lethal gene mutation, Assay Code: SRL-, Evaluation Type: Evaluation A (Pre-1980)) is “inactive; negative”; the mutagenic call (Species/Cell Type: Escherichia coli WP2 UVRA, Assay Type: Tryptophan reverse gene mutation, Assay Code: WPU-*, Activation: With metabolic activation, Evaluation Type: Evaluation A (Pre-1980)) was “inactive; negative”; the mutagenic call under setting [7] was “no conclusion”; the mutagenic call (Species/Cell Type: Human diploid fibroblasts, Assay Type: Unscheduled DNA synthesis (UDS) in vitro, DNA effects, Assay Code: UDH-, Evaluation Type: Evaluation A (Pre-1980)) is “inactive; negative”; the mutagenic call (Species/Cell Type: Mammalian polychromatic erythrocytes, Assay Type: Micronucleus test, chromosome aberrations, Assay Code: MNTT, Evaluation Type: Evaluation B (Post-1980)) was “no conclusion”. Moreover, the mutagenic call is “inactive; negative” (Species/Cell Type: Neurospora crassa, Assay Type: Aneuploidy, chromosome aberrations, Assay Code: NEN-, Evaluation Type: Evaluation A (Pre-1980)); “no conclusion” under setting [8]; “active; positive” (Species/Cell Type: Saccharomyces cerevisiae, Assay Type: Mitotic recombination or gene conversion, Assay Code: YEH+, Evaluation Type: Evaluation A (Pre-1980)); “inactive; negative” (Species/Cell Type: Salmonella typhimurium (one or more of the five standard strains: TA98, TA100, TA1535, TA1537, and TA1538), Assay Type: Histidine reverse gene mutation, Ames assay, Assay Code: SAL-, Evaluation Type: Evaluation A (Pre-1980)).

With `O=S(=O)(O)c1ccc(O)c(N=Nc2c(O)ccc3ccccc23)c1`, the mutagenic call under setting [5] is given as “no conclusion”.
